Among the data in patent publication US10421765B2, “Tetrahydropyrido[4,3-d]pyrimidine inhibitors of ATR kinase” (Board of Regents, The University of Texas System, priority 2017, dated 2019) are IC50 values, retold here.

The structures appear in SMILES notation. Read-outs that look alike come from different tables or passages of the source.

The subject of assay [1] is ATR-driven phosphorylation of Chk1 kinase at Serine 345 in HT-29 colorectal adenocarcinoma cells. Description: pCHK1 cellular assay (CHK1 p-Ser345 AlphaScreen SureFire). The class given is cell-based. Conditions: Homo sapiens, HT-29, HT-29 cells, 4-nitroquinoline N-oxide 12 uM; read-out: Cell IC50 (pCHK1 IC50 values). A digest of the protocol: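 HT-29 cells seeded overnight, treated with 1:3 serially diluted compound for 90 minutes at 37° C., then 12 uM (final) 4-nitroquinoline N-oxide for 120 minutes. Lysates read for Chk1 p-Ser345 by AlphaScreen SureFire; IC50 from four-parameter logistic fit, normalized to DMSO (max) and 5 uM ATR inhibitor (min).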

The next assay has as its target ATR/ATRIP complex (Homo sapiens (Human), UniProt Q13535). The experiment in a line: ATR/ATRIP enzymatic assay (Caliper-based). It counts as biochemical. Conditions: FAM-labeled RAD17 peptide, ATP. A digest of the protocol:
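FLAG-TEV-ATR/His6-ATRIP co-expressed in HEK293 and anti-FLAG purified. Compound preincubated 30 min at 28 °C with enzyme (2x solution 4 nM), then FAM-RAD17 peptide (2x solution 10 uM, 2 μM ATP) added for 6 h at 28 °C; HEPES pH 8, 10 mM MnCl2. Caliper conversion read-out, IC50 from four-parameter fit.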

The mark [2] stands for this setting: estimated range, read-out: ATR/ATRIP Enzyme IC50 (estimated class).
Where [3] appears, read: read-out: ATR/ATRIP Enzyme IC50.

Sequence of ATR/ATRIP complex (Q13535 whole entry): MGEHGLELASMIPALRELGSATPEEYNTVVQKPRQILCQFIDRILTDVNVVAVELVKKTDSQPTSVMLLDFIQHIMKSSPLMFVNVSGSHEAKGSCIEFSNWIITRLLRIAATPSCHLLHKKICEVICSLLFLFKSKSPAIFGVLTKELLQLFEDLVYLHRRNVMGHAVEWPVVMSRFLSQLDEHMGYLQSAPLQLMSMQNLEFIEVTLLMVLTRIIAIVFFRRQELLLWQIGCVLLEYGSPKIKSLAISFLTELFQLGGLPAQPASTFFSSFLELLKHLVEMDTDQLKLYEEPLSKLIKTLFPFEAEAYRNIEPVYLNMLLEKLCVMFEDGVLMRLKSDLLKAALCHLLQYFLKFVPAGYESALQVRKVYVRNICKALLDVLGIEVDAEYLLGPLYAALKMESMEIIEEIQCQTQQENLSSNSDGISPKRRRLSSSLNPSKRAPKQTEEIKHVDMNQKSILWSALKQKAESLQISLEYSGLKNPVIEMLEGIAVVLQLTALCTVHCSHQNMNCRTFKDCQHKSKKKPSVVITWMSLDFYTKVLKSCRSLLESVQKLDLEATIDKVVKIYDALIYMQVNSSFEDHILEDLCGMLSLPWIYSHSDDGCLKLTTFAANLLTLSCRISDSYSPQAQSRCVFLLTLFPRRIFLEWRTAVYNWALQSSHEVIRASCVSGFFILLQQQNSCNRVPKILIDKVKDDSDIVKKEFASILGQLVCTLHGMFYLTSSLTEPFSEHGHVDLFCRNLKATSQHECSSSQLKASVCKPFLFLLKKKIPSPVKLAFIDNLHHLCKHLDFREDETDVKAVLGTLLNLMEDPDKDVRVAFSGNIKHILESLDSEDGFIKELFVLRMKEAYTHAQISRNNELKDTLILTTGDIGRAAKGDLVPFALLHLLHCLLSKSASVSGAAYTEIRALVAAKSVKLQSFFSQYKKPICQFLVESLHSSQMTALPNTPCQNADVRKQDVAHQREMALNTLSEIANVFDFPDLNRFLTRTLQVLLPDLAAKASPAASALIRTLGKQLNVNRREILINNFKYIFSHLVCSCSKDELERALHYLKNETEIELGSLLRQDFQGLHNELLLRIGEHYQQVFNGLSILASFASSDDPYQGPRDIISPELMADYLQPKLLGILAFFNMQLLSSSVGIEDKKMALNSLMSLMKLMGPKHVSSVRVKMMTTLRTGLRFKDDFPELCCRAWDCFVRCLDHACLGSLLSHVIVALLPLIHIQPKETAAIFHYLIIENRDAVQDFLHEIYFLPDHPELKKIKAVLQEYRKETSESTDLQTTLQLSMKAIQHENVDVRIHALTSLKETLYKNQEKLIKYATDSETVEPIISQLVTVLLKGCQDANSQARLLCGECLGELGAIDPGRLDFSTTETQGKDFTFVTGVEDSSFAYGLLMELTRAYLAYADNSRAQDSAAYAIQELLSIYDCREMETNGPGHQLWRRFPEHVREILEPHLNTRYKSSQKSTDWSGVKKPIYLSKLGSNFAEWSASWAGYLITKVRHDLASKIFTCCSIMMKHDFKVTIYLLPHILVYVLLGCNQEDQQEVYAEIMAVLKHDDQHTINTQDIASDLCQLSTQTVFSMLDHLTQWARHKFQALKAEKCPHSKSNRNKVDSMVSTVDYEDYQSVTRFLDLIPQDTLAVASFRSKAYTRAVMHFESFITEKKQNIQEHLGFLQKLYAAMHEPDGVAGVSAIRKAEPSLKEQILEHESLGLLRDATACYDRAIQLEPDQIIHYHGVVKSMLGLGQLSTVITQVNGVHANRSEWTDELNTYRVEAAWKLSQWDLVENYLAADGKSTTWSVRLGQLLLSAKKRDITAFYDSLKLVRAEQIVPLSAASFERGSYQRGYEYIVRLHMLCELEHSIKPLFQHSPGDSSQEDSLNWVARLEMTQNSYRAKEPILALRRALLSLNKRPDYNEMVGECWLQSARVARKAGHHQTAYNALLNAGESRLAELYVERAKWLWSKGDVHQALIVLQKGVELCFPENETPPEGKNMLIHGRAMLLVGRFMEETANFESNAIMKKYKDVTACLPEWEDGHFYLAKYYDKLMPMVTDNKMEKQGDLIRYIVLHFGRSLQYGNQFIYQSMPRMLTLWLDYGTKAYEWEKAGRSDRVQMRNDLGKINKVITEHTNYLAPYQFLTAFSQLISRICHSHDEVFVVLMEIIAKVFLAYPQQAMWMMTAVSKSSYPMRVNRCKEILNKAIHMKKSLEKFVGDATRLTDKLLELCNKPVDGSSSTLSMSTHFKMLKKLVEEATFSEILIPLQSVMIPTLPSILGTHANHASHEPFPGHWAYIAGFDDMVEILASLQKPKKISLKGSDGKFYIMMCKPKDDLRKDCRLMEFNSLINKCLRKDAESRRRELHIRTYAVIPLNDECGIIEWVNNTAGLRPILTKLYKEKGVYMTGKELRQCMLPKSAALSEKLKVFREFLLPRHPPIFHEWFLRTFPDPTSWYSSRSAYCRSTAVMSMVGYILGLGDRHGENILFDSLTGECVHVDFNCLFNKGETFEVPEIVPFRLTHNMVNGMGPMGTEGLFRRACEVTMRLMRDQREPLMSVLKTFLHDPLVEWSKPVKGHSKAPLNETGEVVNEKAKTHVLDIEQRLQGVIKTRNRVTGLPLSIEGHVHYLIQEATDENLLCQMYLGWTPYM
Sequence of ATR/ATRIP complex (Q8WXE1 whole entry partner): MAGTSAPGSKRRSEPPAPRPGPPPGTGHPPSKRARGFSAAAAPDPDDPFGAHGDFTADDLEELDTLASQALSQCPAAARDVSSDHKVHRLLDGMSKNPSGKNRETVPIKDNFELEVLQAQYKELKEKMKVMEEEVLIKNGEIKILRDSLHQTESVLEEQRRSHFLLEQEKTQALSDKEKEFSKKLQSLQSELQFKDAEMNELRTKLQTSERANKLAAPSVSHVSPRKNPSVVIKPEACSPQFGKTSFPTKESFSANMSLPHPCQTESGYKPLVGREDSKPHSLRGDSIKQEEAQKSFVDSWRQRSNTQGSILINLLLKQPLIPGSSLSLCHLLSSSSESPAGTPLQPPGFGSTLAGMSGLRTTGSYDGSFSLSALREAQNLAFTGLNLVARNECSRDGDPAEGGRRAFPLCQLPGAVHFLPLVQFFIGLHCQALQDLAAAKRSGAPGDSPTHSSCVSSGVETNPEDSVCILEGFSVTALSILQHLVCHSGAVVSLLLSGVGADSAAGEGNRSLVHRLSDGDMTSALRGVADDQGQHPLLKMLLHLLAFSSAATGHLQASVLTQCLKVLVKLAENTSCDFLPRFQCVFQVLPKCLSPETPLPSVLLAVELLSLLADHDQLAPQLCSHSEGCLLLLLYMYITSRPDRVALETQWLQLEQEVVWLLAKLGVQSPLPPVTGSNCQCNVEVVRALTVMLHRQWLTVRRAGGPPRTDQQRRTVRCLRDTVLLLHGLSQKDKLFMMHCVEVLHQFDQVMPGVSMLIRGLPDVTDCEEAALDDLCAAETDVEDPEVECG

As to `CS(=O)(=O)c1cccc(-c2ncnc3c2CN(c2ccnc4[nH]ccc24)CC3)c1` [Example 14, 4-(3-methanesulfonyl-phenyl)-6-{1H-pyrrolo-[2,3-b]pyridin-4-yl}-5H,6H,7H,8H-pyrido [4,3-d]pyrimidine], the IC50 in assay [1] is 1610 nM; at ATR/ATRIP complex (setting [2]), 1000 to 10000 nM.
As to `C[C@@H]1Cc2ncnc(N3CCC(C(C)(C)O)CC3)c2CN1c1cc(Cl)nc2[nH]ccc12` [Example 30, 2-{1-[(7R)-6-{6-chloro-1H-pyrrolo[2,3-b]pyridin-4-yl}-7-methyl-5H,6H,7H,8H-pyrido[4,3-d]pyrimidin-4-yl]-piperidin-4-yl}propan-2-ol], the results for the IC50 (in assay [1]; on ATR/ATRIP complex (setting [3])) were 12 nM and 329 nM, respectively.
As for `C[C@@H]1Cc2ncnc(C3CCN(C(=O)C(C)(C)O)CC3)c2CN1c1ccnc2[nH]ccc12` [Example 49, (R)-2-Hydroxy-2-methyl-1-(4-(7-methyl-6-(1H-pyrrolo[2,3-b]pyridin-4-yl)-5,6,7,8-tetrahydropyrido[4,3-d]pyrimidin-4-yl)piperidin-1-yl)propan-1-one], the IC50 in assay [1] worked out at 654 nM; at ATR/ATRIP complex (setting [3]), 3600 nM.
As for `C[C@@H]1Cc2ncnc(N3CCC(O)(C4CC4)CC3)c2CN1c1cc(Cl)nc2[nH]ccc12` [Example 75, (R)-1-(6-(6-chloro-1H-pyrrolo[2,3-b]pyridin-4-yl)-7-methyl-5,6,7,8-tetrahydropyrido[4,3-d]pyrimidin-4-yl)-4-cyclopropylpiperidin-4-ol], the IC50 amounted to 34 nM in assay [1] and 246 nM on ATR/ATRIP complex (setting [3]).
For the compound `C[C@@H]1Cc2ncnc(N3CCC(NS(C)(=O)=O)CC3)c2CN1c1cc(Cl)nc2[nH]ccc12` [Example 29, N-{1-[(7R)-6-{6-chloro-1H-pyrrolo[2,3-b]pyridin-4-yl}-7-methyl-5H,6H,7H,8H-pyrido [4,3-d]pyrimidin-4-yl]piperidin-4-yl}methanesulfonamide], the IC50 amounted to 13 nM in assay [1] and 120 nM at ATR/ATRIP complex (setting [3]).
Consider `C[C@@H]1Cc2ncnc(C3CCN(S(C)(=O)=O)CC3)c2CN1c1cnc2cn[nH]c2c1` [Example 89, (R)-7-methyl-4-(1-(methylsulfonyl)piperidin-4-yl)-6-(1H-pyrazolo-[4,3-b]pyridin-6-yl)-5,6,7,8-tetrahydro-pyrido[4,3-d]pyrimidine], for which the IC50 in assay [1] came out at 7390 nM; on ATR/ATRIP complex (setting [3]), 138 nM.
For `C[C@@H]1Cc2ncnc(C3CCN(S(C)(=O)=O)C3)c2CN1c1ccnc2[nH]ccc12` (stereo partly drawn) [Example 17, 1-methanesulfonyl-3-[(7R)-7-methyl-6-{1H-pyrrolo[2,3-b]pyridin-4-yl}-5H,6H,7H,8H-pyrido[4,3-d]pyrimdin-4-yl]pyrrolidine], the values for the IC50 (in assay [1]; on ATR/ATRIP complex (setting [3])) were 362 nM and 936 nM, respectively.
On to `COc1cc(N2Cc3c(ncnc3C3CCN(S(C)(=O)=O)CC3)C[C@H]2C)c2cc[nH]c2n1` [Example 91, (R)-6-(6-methoxy-1H-pyrrolo[2,3-b]pyridin-4-yl)-7-methyl-4-(1-(methylsulfonyl)-piperidin-4-yl)-5,6,7,8-tetrahydropyrido[4,3-d]-pyrimidine], for which the IC50 in assay [1] worked out at 18 nM; at ATR/ATRIP complex (setting [3]), 269 nM.
In the case of `CS(=O)(=O)c1ccc(-c2ncnc3c2CN(c2ccnc4[nH]ccc24)CC3)cc1` [Example 1, 4-(4-(Methylsulfonyl)phenyl)-6-(1H-pyrrolo[2,3-b]pyridin-4-yl)-5,6,7,8-tetrahydropyrido[4,3-d]pyrimidine bis(trifluoroacetate)], the IC50 in assay [1] was 1880 nM; at ATR/ATRIP complex (setting [2]) it was 1000 to 10000 nM.
In the case of `CCOc1cc(N2Cc3c(ncnc3C3CCN(S(C)(=O)=O)CC3)C[C@@H]2CF)c2cc[nH]c2n1` [Example 55a, (R)-6-(6-ethoxy-1H-pyrrolo[2,3-b]pyridin-4-yl)-7-(fluoromethyl)-4-(1-(methylsulfonyl)piperidin-4-yl)-5,6,7,8-tetrahydropyrido[4,3-d]pyrimidine], the figures for the IC50 (in assay [1]; at ATR/ATRIP complex (setting [3])) were 2360 nM and 25000 nM, respectively.
With `CC1Cc2ncnc(-c3ccc(S(C)(=O)=O)cc3)c2CN1c1ccnc2[nH]ccc12` (centres unmarked) [Example 3, 7-Methyl-4-(4-(methylsulfonyl)phenyl)-6-(1H-pyrrolo[2,3-b]pyridin-4-yl)-5,6,7,8-tetrahydropyrido[4,3-d]pyrimidine bis(trifluoroacetate)], the values for the IC50 (in assay [1]; on ATR/ATRIP complex (setting [3])) were 183 nM and 1970 nM, respectively.
For `C[C@@H]1Cc2ncnc(N3CCCC(S(C)(=O)=O)C3)c2CN1c1ccnc2[nH]ccc12` (stereo partly drawn) [Example 18, 3-methanesulfonyl-1-[(7R)-7-methyl-6-{1H-pyrrolo[2,3-b]pyridin-4-yl}-5H,6H,7H,8H-pyrido[4,3-d]pyrimidin-4-yl]piperidine], in that order: 133 nM and 420 nM.
As to `CS(=O)(=O)N1CCC(c2ncnc3c2CN(c2ccnc4[nH]ccc24)C(CF)C3)CC1` (centres unmarked) [Example 92], the IC50 in assay [1] is 586 nM; on ATR/ATRIP complex (setting [3]) it was 1290 nM.
Turning to `CC1Cc2ncnc(-c3cccc(S(C)(=O)=O)c3)c2CN1c1ccnc2[nH]ccc12` (centres unmarked) [Example 15, 4-(3-methanesulfonyl-phenyl)-7-methyl-6-{1H-pyrrolo[2,3-b]pyridin-4-yl}-5H,6H,7H,8H-pyrido[4,3-d]pyrimidine], the results for the IC50 (in assay [1]; at ATR/ATRIP complex (setting [2])) were 152 nM and 1000 to 10000 nM, respectively.
Consider `CCS(=O)(=O)N1CCCC(c2ncnc3c2CN(c2cc(Cl)nc4[nH]ccc24)[C@H](C)C3)C1` (stereo partly drawn) [Example 24, 3-[(7R)-6-{6-chloro-1H-pyrrolo[2,3-b]pyridin-4-yl}-7-methyl-5H,6H,7H,8H-pyrido[4,3-d]pyrimidin-4-yl]-1-(ethanesulfonyl)-piperidine], for which the IC50 is 285 nM in assay [1] and 1000 to 10000 nM at ATR/ATRIP complex (setting [2]).
`C[C@@H]1Cc2ncnc(N3CCC(S(C)(=O)=O)CC3)c2CN1c1cc(Cl)nc2[nH]ccc12` [Example 9, (R)-6-(6-Chloro-1H-pyrrolo[2,3-b]pyridin-4-yl)-7-methyl-4-(4-(methylsulfonyl)-piperidin-1-yl)-5,6,7,8-tetrahydropyrido[4,3-d]pyrimidine bis(trifluoroacetate)]: the IC50 in assay [1] was determined as 25 nM; on ATR/ATRIP complex (setting [3]), 442 nM.
